According to patent publication US9290453B2 (Merck Sharp & Dohme Corp., priority 2010, dated 2016):
pKi: −log10 of the molar value.

Target: T1, hCRTH2 (Homo sapiens, UniProt Q9Y5Y4)
T1 construct: expressed in transfected cells; host or cells: HEK (human embryonic kidney) cells expressing hCRTH2
T1 sequence (Q9Y5Y4 1-395): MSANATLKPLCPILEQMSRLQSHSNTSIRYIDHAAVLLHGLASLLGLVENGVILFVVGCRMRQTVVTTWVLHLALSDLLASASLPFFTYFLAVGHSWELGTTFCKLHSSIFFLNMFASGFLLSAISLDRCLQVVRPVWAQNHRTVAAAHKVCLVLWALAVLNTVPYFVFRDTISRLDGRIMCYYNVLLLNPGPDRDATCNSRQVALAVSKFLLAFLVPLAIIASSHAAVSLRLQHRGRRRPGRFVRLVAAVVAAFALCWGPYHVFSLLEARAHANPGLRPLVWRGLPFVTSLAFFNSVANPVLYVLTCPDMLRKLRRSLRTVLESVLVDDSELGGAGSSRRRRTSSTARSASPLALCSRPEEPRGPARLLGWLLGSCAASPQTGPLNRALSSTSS
Experiment: Radioligand Binding Assay B (scintillation proximity assay, [3H]-PGD2, HEK-hCRTH2 membranes)
Details: Radioligand Binding Assay B (SPA), values in text
Experimental: Radioligand binding also was performed using scintillation proximity assay (SPA) technology in a similar way as described above in Radioligand Binding Assay A with minor modification. Assays were done at room temperature in 10 mM HEPES pH 7.4, 1 mM EDTA containing 2 mM MnCl2 and 16 nM [^3H]-PGD2 (PerkinElmer, Waltham, Mass.) (164 Ci mmol^−1), in a final volume of 0.05 mL. Competing ligands were diluted in dimethylsulfoxide (Me2SO) and added using very low volumes (50 nL). The reaction was initiated by the addition of a mixture of 3.52 μg of membrane protein prepared from a human embryonic kidney (HEK)-hCRTH2 cell line adhered to 140 ug of wheatgerm agglutinin SPA beads (PerkinElmer). Total and non-specific binding were determined in the absence and the presence of 10 μM of a CRTH2 antagonist, respectively. The reaction was routinely conducted for 60 min at room temperature followed by centrifugation for 5 minutes at 1000 RPM. The radioactivity was measured with a TopCountNXT (PerkinElmer). Results determined using the SPA-based assay were similar to those from the filtration binding assay.

SMILES	pKi
O=C(O)CCCCc1cc2cc(C(=O)N3CCN(c4ccccc4)CC3)ccc2nc1-c1ccc(F)cc1 [Compound 5AF, 5-(2-(4-fluorophenyl)-6-(4-phenylpiperazine-1-carbonyl)quinolin-3-yl)pentanoic acid]	7.94
Cc1cccc(N2CCN(C(=O)c3ccc4nc(-c5ccc(Cl)cc5)c(CCCCC(=O)O)cc4c3)CC2)c1 [Compound 5BR, 5-(2-(4-chlorophenyl)-6-(4-(m-tolyl)piperazine-1-carbonyl)quinolin-3-yl)pentanoic acid]	8.13

Same assay, conditions: Table B, Radioligand Binding Assay B (SPA), rated A-D

SMILES	pKi
O=C(O)CCCCc1cc2cc(C(=O)N[C@H]3COc4ccccc43)ccc2nc1-c1ccccc1 [Compound 1Ao, (R)-5-(6-((2,3-dihydrobenzofuran-3-yl)carbamoyl)-2-phenylquinolin-3-yl)pentanoic acid]	6.70 to 7.70
O=C(O)CCCCc1cc2cc(C(=O)N3CCN(c4ccccc4)CC3)ccc2nc1-c1ccccc1 [Compound 1Ai, 5-(2-phenyl-6-(4-phenylpiperazine-1-carbonyl)quinolin-3-yl)pentanoic acid]	7.70 to 8.68
O=C(O)CCCCc1cc2cc(C(=O)NC3CC(=O)Nc4ccccc43)ccc2nc1-c1ccc(F)cc1 (stereo not drawn) [Compound 5AL, 5-(2-(4-fluorophenyl)-6-((2-oxo-1,2,3,4-tetrahydroquinolin-4-yl)carbamoyl)quinolin-3-yl)pentanoic acid]	7.70 to 8.68
O=C(O)CCCCc1cc2cc(C(=O)NCc3ccccc3)ccc2nc1-c1ccc(F)cc1 [Compound 5AN, 5-(6-(benzylcarbamoyl)-2-(4-fluorophenyl)quinolin-3-yl)pentanoic acid]	6.70 to 7.70
O=C(O)CCCCc1cc2cc(C(=O)N3CCC4(CC3)OCc3ccccc34)ccc2nc1-c1ccccc1 [Compound 1AV, 5-(2-phenyl-6-(3H-spiro[isobenzofuran-1,4′-piperidin]-1′-ylcarbonyl)quinolin-3-yl)pentanoic acid]	7.70 to 8.68
O=C(O)CCCCc1cc2cc(C(=O)N3CCN(c4ccc(F)cc4)CC3)ccc2nc1-c1ccc(Cl)cc1 [Compound 5BU, 5-(2-(4-chlorophenyl)-6-(4-(4-fluorophenyl)piperazine-1-carbonyl)quinolin-3-yl)pentanoic acid]	7.70 to 8.68
Cc1ccc(N2CCN(C(=O)c3ccc4nc(-c5ccc(Cl)cc5)c(CCCCC(=O)O)cc4c3)CC2)cc1 [Compound 5BT, 5-(2-(4-chlorophenyl)-6-(4-(p-tolyl)piperazine-1-carbonyl)quinolin-3-yl)pentanoic acid]	7.70 to 8.68
O=C(O)CCCCc1cc2cc(C(=O)NC3CC(=O)Nc4ccccc43)ccc2nc1-c1ccc(Cl)cc1 (stereo not drawn) [Compound 5BJ, 5-(2-(4-chlorophenyl)-6-((2-oxo-1,2,3,4-tetrahydroquinolin-4-yl)carbamoyl)quinolin-3-yl)pentanoic acid]	7.70 to 8.68
CN(Cc1ccc(F)cc1)C(=O)c1ccc2nc(-c3ccc(Cl)cc3)c(CCCCC(=O)O)cc2c1 [Compound 5BG, 5-(2-(4-chlorophenyl)-6-((4-fluorobenzyl)(methyl)carbamoyl)quinolin-3-yl)pentanoic acid]	7.70 to 8.68
N#CC1(c2ccccc2)CCN(C(=O)c2ccc3nc(-c4ccccc4)c(CCCCC(=O)O)cc3c2)C1 (stereo not drawn) [Compound 1AR, 5-(6-(3-cyano-3-phenylpyrrolidine-1-carbonyl)-2-phenylquinolin-3-yl)pentanoic acid]	7.70 to 8.68
O=C(O)CCCCc1cc2cc(C(=O)N3CC[C@@H](c4ccccc4)C3)ccc2nc1-c1ccc(F)cc1 [Compound 5AH, (S)-5-(2-(4-fluorophenyl)-6-(3-phenylpyrrolidine-1-carbonyl)quinolin-3-yl)pentanoic acid]	7.70 to 8.68
O=C(O)CCCCc1cc2cc(C(=O)N3CCC(n4c(=O)[nH]c5ccccc54)CC3)ccc2nc1-c1ccccc1 [Compound 1AU, 5-(6-(4-(2-oxo-2,3-dihydro-1H-benzo[d]imidazol-1-yl)piperidine-1-carbonyl)-2-phenylquinolin-3-yl)pentanoic acid]	6.70 to 7.70
CC1(C)CCC(NC(=O)c2ccc3nc(-c4ccc(Cl)cc4)c(CCCCC(=O)O)cc3c2)c2ccccc21 (stereo not drawn) [Compound 5Bi, 5-(2-(4-chlorophenyl)-6-((4,4-dimethyl-1,2,3,4-tetrahydronaphthalen-1-yl)carbamoyl)quinolin-3-yl)pentanoic acid]	7.70 to 8.68
CC1(C)CCC(NC(=O)c2ccc3nc(-c4ccc(F)cc4)c(CCCCC(=O)O)cc3c2)c2ccccc21 (stereo not drawn) [Compound 5AK, 5-(6-((4,4-dimethyl-1,2,3,4-tetrahydronaphthalen-1-yl)carbamoyl)-2-(4-fluorophenyl)quinolin-3-yl)pentanoic acid]	7.70 to 8.68
O=C(O)CCCCc1cc2cc(C(=O)N3CCC4(CC3)OCc3ccccc34)ccc2nc1-c1ccc(F)cc1 [Compound 5AQ, 5-(2-(4-fluorophenyl)-6-(3H-spiro[isobenzofuran-1,4′-piperidin]-1′-ylcarbonyl)quinolin-3-yl)pentanoic acid]	7.70 to 8.68
Cc1ccccc1N1CCN(C(=O)c2ccc3nc(-c4ccccc4)c(CCCCC(=O)O)cc3c2)CC1 [Compound 1BB, 5-(2-phenyl-6-(4-(o-tolyl)piperazine-1-carbonyl)quinolin-3-yl)pentanoic acid]	7.70 to 8.68

SMILES	pKi
O=C(O)CCCCc1cc2cc(C(=O)N3CCN(c4ccccc4)CC3)ccc2nc1-c1ccc(F)cc1 [Compound 5AF, 5-(2-(4-fluorophenyl)-6-(4-phenylpiperazine-1-carbonyl)quinolin-3-yl)pentanoic acid]	7.70 to 8.68
O=C(O)CCCCc1cc2cc(C(=O)NC3CC(=O)Nc4ccccc43)ccc2nc1-c1ccccc1 (stereo not drawn) [Compound 1AS, 5-(6-((2-oxo-1,2,3,4-tetrahydroquinolin-4-yl)carbamoyl)-2-phenylquinolin-3-yl)pentanoic acid]	7.70 to 8.68
O=C(O)CCCCc1cc2cc(C(=O)N3CCC4(CC3)OCc3ccccc34)ccc2nc1-c1ccc(Cl)cc1 [Compound 5Bo, 5-(2-(4-chlorophenyl)-6-(3H-spiro[isobenzofuran-1,4′-piperidin]-1′-ylcarbonyl)quinolin-3-yl)pentanoic acid]	7.70 to 8.68
Cc1cccc(N2CCN(C(=O)c3ccc4nc(-c5ccc(Cl)cc5)c(CCCCC(=O)O)cc4c3)CC2)c1 [Compound 5BR, 5-(2-(4-chlorophenyl)-6-(4-(m-tolyl)piperazine-1-carbonyl)quinolin-3-yl)pentanoic acid]	7.70 to 8.68
CN(Cc1ccc(F)cc1)C(=O)c1ccc2nc(-c3ccc(F)cc3)c(CCCCC(=O)O)cc2c1 [Compound 5Ai, 5-(6-((4-fluorobenzyl)(methyl)carbamoyl)-2-(4-fluorophenyl)quinolin-3-yl)pentanoic acid]	7.70 to 8.68
O=C(O)CCCCc1cc2cc(C(=O)N3CCN(c4ccccc4Cl)CC3)ccc2nc1-c1ccccc1 [Compound 1BA, 5-(6-(4-(2-chlorophenyl)piperazine-1-carbonyl)-2-phenylquinolin-3-yl)pentanoic acid]	7.70 to 8.68
COc1ccc(N2CCN(C(=O)c3ccc4nc(-c5ccc(F)cc5)c(CCCCC(=O)O)cc4c3)CC2)cc1 [Compound 5AV, 5-(2-(4-fluorophenyl)-6-(4-(4-methoxyphenyl)piperazine-1-carbonyl)quinolin-3-yl)pentanoic acid]	7.70 to 8.68
CC1(C)CC(NC(=O)c2ccc3nc(-c4ccccc4)c(CCCCC(=O)O)cc3c2)c2ccccc2O1 (stereo not drawn) [Compound 1AP, 5-(6-((2,2-dimethylchroman-4-yl)carbamoyl)-2-phenylquinolin-3-yl)pentanoic acid]	6.70 to 7.70
O=C(O)CCCCc1cc2cc(C(=O)N3CC[C@@H](c4ccccc4)C3)ccc2nc1-c1ccc(Cl)cc1 [Compound 5BF, (S)-5-(2-(4-chlorophenyl)-6-(3-phenylpyrrolidine-1-carbonyl)quinolin-3-yl)pentanoic acid]	7.70 to 8.68
O=C(O)CCCCc1cc2cc(C(=O)NCc3ccccc3)ccc2nc1-c1ccc(Cl)cc1 [Compound 5BL, 5-(6-(benzylcarbamoyl)-2-(4-chlorophenyl)quinolin-3-yl)pentanoic acid]	7.70 to 8.68
O=C(O)CCCCc1cc2cc(C(=O)N[C@@H]3COc4ccccc43)ccc2nc1-c1ccc(Cl)cc1 [Compound 5BB, (S)-5-(2-(4-chlorophenyl)-6-((2,3-dihydrobenzofuran-3-yl)carbamoyl)quinolin-3-yl)pentanoic acid]	7.70 to 8.68
O=C(O)CCCCc1cc2cc(C(=O)N3CC(c4cccc(F)c4)C3)ccc2nc1-c1ccc(F)cc1 [Compound 5AG, 5-(2-(4-fluorophenyl)-6-(3-(3-fluorophenyl)azetidine-1-carbonyl)quinolin-3-yl)pentanoic acid]	6.70 to 7.70
O=C(O)CCCCc1cc2cc(C(=O)N[C@@H]3CCOc4ccccc43)ccc2nc1-c1ccc(Cl)cc1 [Compound 5BA, (R)-5-(2-(4-chlorophenyl)-6-(chroman-4-ylcarbamoyl)quinolin-3-yl)pentanoic acid]	7.70 to 8.68
COc1ccccc1C1CCN(C(=O)c2ccc3nc(-c4ccc(Cl)cc4)c(CCCCC(=O)O)cc3c2)CC1 [Compound 5BN, 5-(2-(4-chlorophenyl)-6-(4-(2-methoxyphenyl)piperidine-1-carbonyl)quinolin-3-yl)pentanoic acid]	7.70 to 8.68
O=C(O)CCCCc1cc2cc(C(=O)N3CCN(c4ccccc4)CC3)ccc2nc1-c1ccc(Cl)cc1 [Compound 5BD, 5-(2-(4-chlorophenyl)-6-(4-phenylpiperazine-1-carbonyl)quinolin-3-yl)pentanoic acid]	7.70 to 8.68
